The IC50 is the concentration that inhibits the measured activity by half. A low value points to greater potency.

Consider 10 compounds from US20260356856A1, “KRAS G12S AND G12C INHIBITORS” (MIRATI THERAPEUTICS, INC., priority 2023, published 2026).

For assay [1], the target named is T1, KRas-mediated phosphorylation of ERK in MKN1 cells (Homo sapiens, UniProt P01116).
T1 construct: pERK HTRF read-out
The experiment in a line: Inhibition of KRas-mediated phosphorylation of ERK (HTRF), MKN1 cells. The following applies: MKN1 cells (KRas WT); HTRF pERK; 3 h incubation. It is filed as cell-based. The procedure:
Inhibition of KRas Phosphorylation of ERK (HTRF) by Exemplary Compounds of Formula (Ia) or (Ib)
Cisbio HTRF Advanced pERK Assay Catalog #64AERPEH • Cells: MKN1, PSN1 • Procedure: • 1. Day 1: Seed 6,000 cells/well −25 μl/well in 384-well white solid bottom plate; RPM1_10% FBS. Incubate overnight at 37 °C/5% CO2. • 2.
A general note: Time-resolved FRET reads energy transfer from a long-lived donor to a nearby acceptor.

The target of assay [2] is T2, KRas-mediated phosphorylation of ERK in A549 cells (Homo sapiens, UniProt P01116, G12S).
T2 construct: pERK HTRF read-out
As to the kind of experiment: Inhibition of KRas-mediated phosphorylation of ERK (HTRF), A549 cells. It is filed as cell-based. Particulars: HTRF pERK, 3 h incubation.

Assay [3] concerns the target T3, KRas WT (Homo sapiens, UniProt P01116).
T3 construct: Biotinylated KRas (corresponding to amino acids 1-169, produced at Accelegan Inc.); biotin (biotinylated); purchased Accelegan Inc
The experiment in a line: KRas binding assay, TR-FRET displacement of Cy5 labelled tracer. The following applies: 60-minute incubation at room temperature, 1% DMSO, pH 7.5. The method, boiled down: (§1)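 Compound competes with tracer for biotin-labelled KRas (amino acids 1-169) bound to terbium-streptavidin. Incubation runs 60 minutes at room temperature, final DMSO 1%. IC50 values derive from a 4-parameter fit.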

Assay [4] concerns the target T4, KRas G12S (Homo sapiens, UniProt P01116, G12S).
T4 construct: Biotinylated KRas (corresponding to amino acids 1-169, produced at Accelegan Inc.); biotin (biotinylated); purchased Accelegan Inc
The description is as above. Particulars: 60-minute incubation at room temperature, 1% DMSO, pH 7.5. The method, boiled down:
as §1

Assay [5] has as its target T5, KRas G12C (Homo sapiens, UniProt P01116, G12C).
T5 construct: Biotinylated KRas (corresponding to amino acids 1-169, produced at Accelegan Inc.); biotin (biotinylated); purchased Accelegan Inc
Described as above. Particulars: 60-minute incubation at room temperature, 1% DMSO, pH 7.5. The gist of the method: as §1

Assay [6] deals with T6, KRas-mediated phosphorylation of ERK in H358 cells (Homo sapiens, UniProt P01116, G12C).
T6 construct: pERK HTRF read-out
The experiment in a line: Inhibition of KRas-mediated phosphorylation of ERK (HTRF), H358 cells. It is filed as cell-based. Particulars: HTRF pERK, 3 h incubation.

T3 sequence (P01116 1-169 isoform P01116-2): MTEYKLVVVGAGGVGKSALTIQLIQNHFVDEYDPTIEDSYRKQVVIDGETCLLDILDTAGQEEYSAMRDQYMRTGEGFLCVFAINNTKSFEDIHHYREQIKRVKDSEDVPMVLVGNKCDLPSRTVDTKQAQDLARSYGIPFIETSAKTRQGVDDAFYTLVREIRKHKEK
T2 sequence (P01116 1-188 isoform P01116-2 G12S): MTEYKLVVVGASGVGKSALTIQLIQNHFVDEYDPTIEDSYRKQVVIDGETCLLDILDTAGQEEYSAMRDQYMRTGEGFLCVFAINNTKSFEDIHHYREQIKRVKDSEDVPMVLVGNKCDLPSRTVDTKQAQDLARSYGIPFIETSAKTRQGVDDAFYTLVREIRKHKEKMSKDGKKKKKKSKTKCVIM
T4 sequence (P01116 1-169 isoform P01116-2 G12S): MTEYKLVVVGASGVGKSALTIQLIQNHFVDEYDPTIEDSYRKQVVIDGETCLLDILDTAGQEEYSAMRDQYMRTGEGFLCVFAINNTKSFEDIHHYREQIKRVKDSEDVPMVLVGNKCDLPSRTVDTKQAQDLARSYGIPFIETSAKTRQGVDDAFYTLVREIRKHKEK
T6 sequence (P01116 1-188 isoform P01116-2 G12C): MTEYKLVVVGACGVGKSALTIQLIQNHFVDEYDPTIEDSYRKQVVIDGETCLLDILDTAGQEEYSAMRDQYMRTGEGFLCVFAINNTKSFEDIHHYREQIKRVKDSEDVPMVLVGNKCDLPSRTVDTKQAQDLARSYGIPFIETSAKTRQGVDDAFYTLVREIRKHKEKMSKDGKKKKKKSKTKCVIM
T5 sequence (P01116 1-169 isoform P01116-2 G12C): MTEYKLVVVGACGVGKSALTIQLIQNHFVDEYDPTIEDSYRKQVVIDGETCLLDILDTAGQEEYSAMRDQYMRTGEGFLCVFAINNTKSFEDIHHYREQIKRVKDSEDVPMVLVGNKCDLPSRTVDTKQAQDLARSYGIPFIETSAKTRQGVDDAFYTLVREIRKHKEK
T1 sequence (P01116 1-188 isoform P01116-2): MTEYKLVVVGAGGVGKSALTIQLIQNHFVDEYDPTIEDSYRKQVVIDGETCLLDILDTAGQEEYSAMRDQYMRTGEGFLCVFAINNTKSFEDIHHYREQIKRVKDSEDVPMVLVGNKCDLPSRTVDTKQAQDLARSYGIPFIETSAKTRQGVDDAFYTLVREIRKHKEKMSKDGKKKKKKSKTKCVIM

On to `N#Cc1c(N)sc2c(F)ccc(-c3c(Cl)cc4c(N5CCCC(C(=O)n6ccc(C7CC7)n6)CC5)nc(OC[C@@]56CCCN5C[C@H](F)C6)nc4c3F)c12` (stereo partly drawn) [Example 189, 2-amino-4-(6-chloro-4-(4-(3-cyclopropyl-1H-pyrazole-1-carbonyl)azepan-1-yl)-8-fluoro-2-(((2R,7aS)-2-fluorotetrahydro-1H-pyrrolizin-7a(5H)-yl)methoxy)quinazolin-7-yl)-7-fluorobenzo[b]thiophene-3-carbonitrile], for which the IC50 is 199 nM in assay [1]; 27 nM in assay [2]; 24 nM in assay [3]; 8 nM in assay [4]; 13 nM in assay [5]; 43 nM in assay [6].

Consider `COCc1ccn(C(=O)C2CCCN(c3nc(OC[C@@]45CCCN4C[C@H](F)C5)nc4c(F)c(-c5ccc(F)c6sc(N)c(C#N)c56)c(Cl)cc34)CC2)n1` (stereo partly drawn) [Example 190, 2-amino-4-(6-chloro-8-fluoro-2-(((2R,7aS)-2-fluorotetrahydro-1H-pyrrolizin-7a(5H)-yl)methoxy)-4-(4-(3-(methoxymethyl)-1H-pyrazole-1-carbonyl)azepan-1-yl)quinazolin-7-yl)-7-fluorobenzo[b]thiophene-3-carbonitrile], for which the IC50 in assay [1] came to 205 nM; in assay [2], 7 nM; in assay [3], 13 nM; in assay [4] it was 4 nM; in assay [5], 5 nM; in assay [6], 7 nM.

Turning to `N#Cc1c(N)sc2c(F)ccc(-c3c(Cl)cc4c(N5CCN(C(=O)n6nccn6)CC5)nc(OC[C@@]56CCCN5C[C@H](F)C6)nc4c3F)c12` [Example 191, 4-(4-(4-(2H-1,2,3-triazole-2-carbonyl)piperazin-1-yl)-6-chloro-8-fluoro-2-(((2R,7aS)-2-fluorotetrahydro-1H-pyrrolizin-7a(5H)-yl)methoxy)quinazolin-7-yl)-2-amino-7-fluorobenzo[b]thiophene-3-carbonitrile], the IC50 in assay [1] is 15 nM; in assay [2] it was 290 nM; in assay [3], 6 nM; in assay [4], 7 nM; in assay [5] it was below 2 nM; in assay [6], 1 nM.

As to `CCc1c(F)ccc2cc(O)cc(N3CCc4c(nc(OC[C@@]56CCCN5C[C@H](F)C6)nc4N4CCCCCC(C(=O)n5ccc(C)n5)C4)C3)c12` (stereo partly drawn) [Example 192, (1-(7-(8-ethyl-7-fluoro-3-hydroxynaphthalen-1-yl)-2-(((2R,7aS)-2-fluorotetrahydro-1H-pyrrolizin-7a(5H)-yl)methoxy)-5,6,7,8-tetrahydropyrido[3,4-d]pyrimidin-4-yl)azocan-3-yl)(3-methyl-1H-pyrazol-1-yl)methanone], the IC50 worked out at 105 nM in assay [1]; 4250 nM in assay [2]; 23 nM in assay [3]; 35 nM in assay [4]; 27 nM in assay [5]; 160 nM in assay [6].

For `CCc1c(F)ccc2cc(O)cc(N3CCc4c(nc(OC[C@@]56CCCN5C[C@H](F)C6)nc4NCCC(=O)n4ccc(C)n4)C3)c12` [Example 195, 3-((7-(8-ethyl-7-fluoro-3-hydroxynaphthalen-1-yl)-2-(((2R,7aS)-2-fluorotetrahydro-1H-pyrrolizin-7a(5H)-yl)methoxy)-5,6,7,8-tetrahydropyrido[3,4-d]pyrimidin-4-yl)amino)-1-(3-methyl-1H-pyrazol-1-yl) propan-1-one], the IC50 amounted to 936 nM in assay [1]; 84 nM in assay [2]; 43 nM in assay [3]; 6 nM in assay [4]; 13 nM in assay [5]; 1170 nM in assay [6].

`CN(CCCC(=O)Oc1cccc(F)c1)c1nc(OC[C@@]23CCCN2C[C@H](F)C3)nc2c(F)c(-c3ccc(F)c4sc(N)c(C#N)c34)c(Cl)cc12` [Example 198, 3-fluorophenyl 4-((7-(2-amino-3-cyano-7-fluorobenzo[b]thiophen-4-yl)-6-chloro-8-fluoro-2-(((2R,7aS)-2-fluorotetrahydro-1H-pyrrolizin-7a(5H)-yl)methoxy)quinazolin-4-yl)(methyl)amino)butanoate]: the IC50 in assay [1] is 159 nM; in assay [2] it was 489 nM; in assay [3], 77 nM; in assay [4] it was 14 nM; in assay [5], 2 nM; in assay [6], 28 nM.

On to `Cc1ccn(C(=O)CCCCN(C)c2nc(OC[C@@]34CCCN3C[C@H](F)C4)nc3c(F)c(-c4ccc(F)c5sc(N)c(C#N)c45)c(Cl)cc23)n1` [Example 199, 2-amino-4-(6-chloro-8-fluoro-2-(((2R,7aS)-2-fluorotetrahydro-1H-pyrrolizin-7a(5H)-yl)methoxy)-4-(methyl(5-(3-methyl-1H-pyrazol-1-yl)-5-oxopentyl)amino)quinazolin-7-yl)-7-fluorobenzo[b]thiophene-3-carbonitrile], for which the IC50 in assay [1] turned out to be 236 nM; in assay [2], 4320 nM; in assay [3] it was 26 nM; in assay [4] it was 27 nM; in assay [5], 17 nM; in assay [6], 432 nM.

As for `CN(CCCC(=O)N(C)c1ccccn1)c1nc(OC[C@@]23CCCN2C[C@H](F)C3)nc2c(F)c(-c3ccc(F)c4sc(N)c(C#N)c34)c(Cl)cc12` [Example 200, 4-((7-(2-amino-3-cyano-7-fluorobenzo[b]thiophen-4-yl)-6-chloro-8-fluoro-2-(((2R,7aS)-2-fluorotetrahydro-1H-pyrrolizin-7a(5H)-yl)methoxy)quinazolin-4-yl)(methyl)amino)-N-methyl-N-(pyridin-2-yl) butanamide], the IC50 turned out to be 86 nM in assay [1]; 729 nM in assay [2]; 5 nM in assay [3]; 4 nM in assay [4]; 2 nM in assay [5]; 112 nM in assay [6].

Regarding `CN(CCCC(=O)Nc1cccnc1)c1nc(OC[C@@]23CCCN2C[C@H](F)C3)nc2c(F)c(-c3ccc(F)c4sc(N)c(C#N)c34)c(Cl)cc12` [Example 201, 4-((7-(2-amino-3-cyano-7-fluorobenzo[b]thiophen-4-yl)-6-chloro-8-fluoro-2-(((2R,7aS)-2-fluorotetrahydro-1H-pyrrolizin-7a(5H)-yl)methoxy)quinazolin-4-yl)(methyl)amino)-N-(pyridin-3-yl)butanamide], the IC50 in assay [1] came out at 251 nM; in assay [2] it was 1570 nM; in assay [3] it was 6 nM; in assay [4] it was 5 nM; in assay [5] it was 4 nM; in assay [6], 373 nM.

As for `CN(CCCC(=O)Oc1ccccc1)c1nc(OC[C@@]23CCCN2C[C@H](F)C3)nc2c(F)c(-c3ccc(F)c4sc(N)c(C#N)c34)c(Cl)cc12` [Example 204, phenyl 4-((7-(2-amino-3-cyano-7-fluorobenzo[b]thiophen-4-yl)-6-chloro-8-fluoro-2-(((2R,7aS)-2-fluorotetrahydro-1H-pyrrolizin-7a(5H)-yl)methoxy)quinazolin-4-yl)(methyl)amino)butanoate], the IC50 in assay [1] is 230 nM; in assay [2], 351 nM; in assay [3] it was 38 nM; in assay [4] it was 13 nM; in assay [5], below 2 nM; in assay [6], 17 nM.
